Laboratory results from ChEMBL document CHEMBL1146179, “Desosamine in multicomponent reactions” (Bioorg Med Chem Lett, 2006).
Active and inactive are the calls of the source.

Legend:
Type in all cases: functional, organism-based
Escherichia coli [1] = assay: Antibacterial activity against Escherichia coli at 100 mM
Escherichia coli [2] = assay: Antibacterial activity against Escherichia coli at 400 mM
Escherichia coli [3] = assay: Antibacterial activity against Escherichia coli at 50 mM
Staphylococcus aureus [4] = assay: Antibacterial activity against Staphylococcus aureus ATCC 6538 at 400 mM
Candida albicans [5] = assay: Antifungal activity against Candida albicans ATCC 10231 at 100 mM
Candida albicans [6] = assay: Antifungal activity against Candida albicans ATCC 10231 at 400 mM
Staphylococcus aureus [7] = assay: Antibacterial activity against Staphylococcus aureus ATCC 6538 at 50 mM
Staphylococcus aureus [8] = assay: Antibacterial activity against Staphylococcus aureus ATCC 6538 at 100 mM
Bacillus subtilis [9] = assay: Antibacterial activity against Bacillus subtilis at 400 mM
Bacillus subtilis [10] = assay: Antibacterial activity against Bacillus subtilis at 50 mM
Bacillus subtilis [11] = assay: Antibacterial activity against Bacillus subtilis at 100 mM
Candida albicans [12] = assay: Antifungal activity against Candida albicans ATCC 10231 at 50 mM

Measured: Activity

C[C@@H]1C[C@H](N(C)C)[C@@H](O)C(NCc2nnnn2C(C)(C)C)O1 (some centres undefined)
inactive: all assays above

COC(=O)Cn1nnnc1C(NC1O[C@H](C)C[C@H](N(C)C)[C@H]1O)c1ccccc1 (some centres undefined)
inactive: all assays above
